Data: US20030153611A1, “1,3-Diarylprop-2-en-1-ones, compositions containing them and use thereof” (AVENTIS PHARMA S.A., priority 2001, published 2003)
Where a name gives a salt, the structure may show the parent alone.

Columns and labels:
HDMEC = assay: Inhibition of cell proliferation, HDMEC; type: cell-based; details: Homo sapiens
HeLa cells = assay: Inhibition of proliferation of HeLa cells ([14C]-thymidine incorporation); type: cell-based; details: Homo sapiens, incubation for 48 hours, read-out: Inhibition of cell proliferation IC50 HeLa
Experimental: The proliferation of HeLa cells is assessed by measuring the incorporation of [^14C]-thymidine in the following way. The HeLa cells (epithelial tumor cells of human origin) are cultured in a DMEM medium (Gibco) which contains 10% fetal calf serum and antibiotics (1% penicillin, 1% streptomycin). To carry out the proliferation test, the cells are inoculated into 96-well cytostar microplates (Amersham), at a rate of 5 000 cells per well. [^14C]-thymidine (0.1 μCi/well) and the products to be assessed are then added. Variable concentrations of products up to 10 μM are used; the DMSO (solvent used to dissolve the products) should not exceed 0.5% in the medium. After incubation for 48 hours at 37° C., the radioactivity incorporated into the cells is measured by counting the plate in a TRI-LUX counter (Wallac). The IC50 value is defined as the concentration of product which reduces the radioactivity by 50% relative to an untreated control. A product whose IC50 value is less than 1 μM is considered as cytotoxic.

HDMEC cells = assay: Detachment effect on HDMEC endothelial cells; type: cell-based, Human; details: treatment for two hours
Text: A test to determine the detachment of endothelial cells was established in order to select the products on the basis of their “in vitro” activity. This test for determining the endothelial cell detachment is characterized in that the endothelial cells, inoculated in plates which are coated at the bottom with a binder, e.g., chosen from gelatin, fibronectin or vitronectin, after culturing, are supplemented with a medium containing the test compound, and the cells are then labeled with a fluorescent substance, the cells which become detached are removed by washing and the fluorescence of the remaining cells is counted in a fluorimeter.
This test consists in measuring the detachment of endothelial cells cultured on substrates based on a binder, e.g., chosen from fibronectin, vitronectin and gelatin. One day after inoculating the cells in plates containing 96 wells, for example, the culture medium is replaced with a medium containing the test compound in the absence of serum. The same preparation is prepared six times at three different concentrations ([…]) and the control without addition of antivascular product is prepared six times. After treatment for two hours with the test substance, the cells are labeled with calcein-AM (1.6 μg/ml) in a culture medium supplemented with 0.1% BSA. The cells which become detached are removed by washing with the culture medium containing 0.1% bovine serum albumin; 100 μl of medium are added to each well. The fluorescence of the remaining cells is counted in a fluorimeter. The data obtained are expressed relative to the control (untreated cells).
(§1) The assessment of the detachment of the endothelial cells in vitro is determined in the following way. HDMEC cells (Human Dermal Microvascular Endothelial Cells, Promocell, c-122102) are cultured in an ECGM-MV medium containing 5% fetal calf serum, growth factors (EGF 10 ng/ml, hydrocortisone 1 μg/ml, 0.4% growth supplement with heparin) and antibiotics (amphotericin 50 ng/ml, gentamicin 50 μg/ml). For the detachment test, the HDMECs are inoculated at a rate of 5 000 cells in clear-bottomed 96-well plates (Costar) precoated with fibronectin (10 μg/ml) or vitronectin (1 μg/ml) or gelatin. Twenty-four hours later, the culture medium is replaced with 0.1% BSA ECGM-MV medium containing the indicated products. The test concentrations are 0.1-0.3 and 1 μM for each product. After treatment for two hours, the cells are labeled for 1 hour with calcein (1.6 μg/ml, Molecular Probes) in 0.1% BSA ECGM-MV medium. The detached cells are then removed by washing with 0.1% BSA ECGM-MV medium; 100 μl of medium are added to each well. The fluorescence of the cells which remain attached to the substratum of the well is counted using a fluorimeter, Spectrafluor Plus (Tecan, excitation at 485 nm, and emission at 535 nm). The data are the average of six different samples and are expressed as a percentage of the control (untreated cells).
A cell detachment effect of greater than or equal to 15% is considered as significant.
as §1, with “(amphotericine” for “(amphotericin”, “The detached cells are then removed by washing with 0.1% BSA ECGM-MV medium; 100 μl of medium are added to each well. The fluorescence of the cells which remain attached to the substratum of the well is counted using a fluorimeter, Spectrafluor Plus (Tecan, excitation at 485 nm, and emission at 535 nm). The data are the average of six different samples and are expressed as a percentage of the control (untreated cells).” left out

Tubulin = target: T1, Tubulin (Sus scrofa, UniProt P02550+P02554); assay: Assessment of the inhibition of tubulin polymerization (turbidimetry); type: biochemical, pig; details: tubulin 10 μM, turbidity at 350 nm, 37° C.
T1 construct: Tubulin is purified from pig brains according to the published methods; from tissue; host or cells: pig brain
Experimental: Tubulin is purified from pig brains according to the published methods (Shelanski et al., 1973, Proc. Natl, Acad. Sci. USA, 70, 765-768. Weingarten et al., 1975, Proc. Natl, Acad. Sci. USA, 72, 1858-1862). Briefly, the brains are ground and centrifuged in an extraction buffer. The tubulin, contained in the extract supernatant, is subjected to two successive cycles of polymerization at 37° C. and depolymerization at 4° C., before being separated from the MAPs (Microtubule Associated Proteins) by chromatography on a phosphocellulose P11 column (Whatman). The tubulin thus isolated is more than 95% pure. It is stored in a buffer known as RB/2 30% glycerol, the composition of which is MES-NaOH [2-(N-morpholino)ethanesulfonic acid] 50 mM, pH 6.8; MgCl2 0.25 mM; EGTA 0.5 mM; 30% glycerol (v/v), GTP (guanosine 5′-triphosphate) 0.2 mM.
The polymerization of the tubulin into microtubules is monitored by turbidimetry as follows; the tubulin is adjusted to a concentration of 10 μM (1 mg/ml) in the RB/2 30% glycerol buffer, to which is added 1 mM GTP and 6 mM MgCl2. The polymerization is initiated by increasing the temperature from 6° C. to 37° C. in a cuvette with a 1 cm optical pathlength, placed in a Uvikon 931 spectrophotometer (Kontron) equipped with a thermostatically-regulated cuvette holder. The increase in the turbidity of the solution is monitored at 350 nm.
The products are dissolved at 10 mM in DMSO and added at variable concentrations (0.5 to 10 μM) to the tubulin solution before polymerization. The IC50 value is defined as the concentration of product which inhibits 50% of the rate of polymerization. A product whose IC50 value is less than or equal to 3 μM is considered as very active.

T1 sequence (P02550 whole entry): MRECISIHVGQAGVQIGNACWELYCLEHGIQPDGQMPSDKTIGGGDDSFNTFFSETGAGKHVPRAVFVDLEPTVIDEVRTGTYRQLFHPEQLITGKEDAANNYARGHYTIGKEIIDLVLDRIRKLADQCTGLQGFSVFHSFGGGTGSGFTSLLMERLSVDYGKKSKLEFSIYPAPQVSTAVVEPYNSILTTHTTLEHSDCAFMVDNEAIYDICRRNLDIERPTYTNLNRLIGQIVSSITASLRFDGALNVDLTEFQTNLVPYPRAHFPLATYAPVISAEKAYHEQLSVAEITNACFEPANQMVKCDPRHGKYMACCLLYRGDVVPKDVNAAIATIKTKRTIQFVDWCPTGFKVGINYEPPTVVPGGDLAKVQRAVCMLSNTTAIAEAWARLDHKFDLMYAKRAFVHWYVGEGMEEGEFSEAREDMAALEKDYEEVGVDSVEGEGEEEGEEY
T1 sequence (P02554 whole entry): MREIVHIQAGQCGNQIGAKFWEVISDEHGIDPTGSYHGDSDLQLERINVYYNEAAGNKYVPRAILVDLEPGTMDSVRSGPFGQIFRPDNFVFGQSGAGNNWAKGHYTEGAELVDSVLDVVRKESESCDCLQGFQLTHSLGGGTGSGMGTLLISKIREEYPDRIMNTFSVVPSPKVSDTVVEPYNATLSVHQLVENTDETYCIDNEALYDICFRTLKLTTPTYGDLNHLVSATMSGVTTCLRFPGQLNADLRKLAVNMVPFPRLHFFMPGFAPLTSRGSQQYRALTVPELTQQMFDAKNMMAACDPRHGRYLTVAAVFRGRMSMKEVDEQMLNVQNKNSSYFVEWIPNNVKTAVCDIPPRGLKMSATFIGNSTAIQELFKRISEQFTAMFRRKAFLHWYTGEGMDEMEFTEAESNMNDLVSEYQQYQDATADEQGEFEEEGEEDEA

IC50 (Tubulin) [nM] | Compound | IC50 (HDMEC) [nM] | IC50 (HeLa cells) [nM] | Percentage of detachment of HDMEC cells induced with the compound at a concentration of 0.1 μM (HDMEC cells) | Percentage of detachment of HDMEC cells induced with the compound at a concentration of 0.3 μM (HDMEC cells) | Percentage of detachment of HDMEC cells induced with the compound at a concentration of 1 μM (HDMEC cells)
2500 | COc1cc(/C=C(\C)C(=O)c2cc(OC)c(OC)c(OC)c2)ccc1N [Example 2, E-3-(4-Amino-3-methoxyphenyl)-2-methyl-1-(3,4,5-trimethoxyphenyl)propenone] | 1.9 to 4 | 39 to 104 | 16-21% | 17-32% | 31-49%
3500 | COc1cc(C(=N/O)/C(C)=C/c2ccc3c(ccn3C)c2)cc(OC)c1OC [Example 9, E-2-Methyl-3-(1-methyl-1-H-indol-5-yl)-1-(3,4,5-trimethoxyphenyl)propenone E-oxime] | – | – | – | – | –
2000 | COc1cc(C(=O)/C(C)=C/c2ccc3c(ccn3CCN(C)C)c2)cc(OC)c1OC [Example 20, E-2-Methyl-3-[1-(2-dimethylaminoethyl)-1-H-indol-5-yl]-1-(3,4,5-trimethoxyphenyl)propenone hydrochloride] | – | – | – | – | –
500 | COc1cc(C(=O)/C(C)=C/c2ccc3c(ccn3CO)c2)cc(OC)c1OC [Example 21, E-2-Methyl-3-(1-hydroxymethyl-1-H-indol-5-yl)-1-(3,4,5-trimethoxyphenyl)propenone] | – | – | – | – | –
800 | COc1cc(C(=O)/C(C)=C/c2ccc3[nH]ccc3c2)cc(OC)c1OC [Example 19, E-2-Methyl-3-(1-H-indol-5-yl)-1-(3,4,5-trimethoxyphenyl)propenone] | – | – | – | – | –
800 | COc1cc(C(=N\O)/C(C)=C/c2ccc3c(ccn3C)c2)cc(OC)c1OC [Example 8, E-2-Methyl-3-(1-methyl-1-H-indol-5-yl)-1-(3,4,5-trimethoxyphenyl)propenone Z-oxime] | – | – | – | – | –
500 | COc1cc(C(=O)/C(C)=C/c2ccc3c(ccn3C)c2)cc2c1OCO2 [Example 16, E-2-Methyl-3-(1-methyl-1-H-indol-5-yl)-1-(3-methoxy-4,5-methylenedioxyphenyl)propenone] | – | – | – | – | –

The remaining lines, values behind:

Compound | IC50 (Tubulin) [nM] | IC50 (HDMEC) [nM] | IC50 (HeLa cells) [nM] | Percentage of detachment of HDMEC cells induced with the compound at a concentration of 0.1 μM (HDMEC cells) | Percentage of detachment of HDMEC cells induced with the compound at a concentration of 0.3 μM (HDMEC cells) | Percentage of detachment of HDMEC cells induced with the compound at a concentration of 1 μM (HDMEC cells)
COc1ccc(/C=C(\C)C(=O)c2cc(OC)c(OC)c(OC)c2)cc1NC(=O)[C@@H](N)CCCNC(=N)N[N+](=O)[O-] [Example 11, 2-Amino-5-[3-(1-nitroguanidino)]-pentanoic acid {2-methoxy-5-[2-methyl-3-oxo-3-(3,4,5-trimethoxy-phenyl)propenyl]phenyl}amide hydrochloride] | – | 400 | – | – | – | –
COc1ccc(OC)c(C(=O)/C(C)=C/c2ccc(OC)c(N)c2)c1.Cl [Example 3, E-3-(3-Amino-4-methoxyphenyl)-2-methyl-1-(2,5-dimethoxyphenyl)propenone hydrochloride] | 500 | < 19 | < 19 | 31% | 37% | 34%
COc1cc(C(=NO)/C(C)=C/c2ccc3c(ccn3C)c2)cc(OC)c1OC (mixture of isomers) [Example 7, E-2-Methyl-3-(1-methyl-1-H-indol-5-yl)-1-(3,4,5-trimethoxyphenyl)propenoneoxime] | 2000 | 300 to 500 | – | – | – | –
COc1ccc(/C=C(\C)C(=O)c2cc(OC)c(OC)c(OC)c2)cc1NC(=O)[C@@H]1CCCN1C [Example 12, 1-Methylpyrrolidine-2-carboxylic acid {2-methoxy-5-[2-methyl-3-oxo-3-(3,4,5-trimethoxyphenyl)propenyl]phenyl}amide hydrochloride] | – | 320 | – | – | – | –
COc1ccc(/C=C(\C)C(=O)c2cc(OC)c(OC)c(OC)c2)cc1NC(=O)[C@@H](N)C(C)C [Example 15, (S)-2-Amino-3-methylbutanoic acid {2-methoxy-5-[2-methyl-3-oxo-3-(3,4,5-trimethoxy-phenyl)propenyl]phenyl}amide hydrochloride] | 9000 | 30 to 60 | – | – | – | –
COc1ccc(/C=C(\Br)C(=O)c2cc(OC)c(OC)c(OC)c2)cc1N [Example 4, E-3-(3-Amino-4-methoxyphenyl)-2-bromo-1-(3,4,5-trimethoxyphenyl)propenone] | 600 | – | – | – | – | –
COc1ccc(/C=C(\C)C(=O)c2cc(OC)c(OC)c(OC)c2)cc1N [Example 1, E-3-(3-Amino-4-methoxyphenyl)-2-methyl-1-(3,4,5-trimethoxyphenyl)propenone] | 300 | 2.5 to 3.2 | 3.6 to 4.3 | 21-36% | 18-38% | 37-42%
